Source: patent publication US5344927A, “Tetrahydrobenzimidazole derivatives and pharmaceutical compositions containing same” (Yamanouchi Pharmaceutical Co., Ltd., priority 1989, dated 1994)

Biological target: T1, 5-HT3 -receptor (Rattus norvegicus, UniProt P35563)
T1 construct: Transient reduction in heart rate and blood pressure induced by intravenous administration of serotonin; from tissue
T1 sequence (P35563 24-483): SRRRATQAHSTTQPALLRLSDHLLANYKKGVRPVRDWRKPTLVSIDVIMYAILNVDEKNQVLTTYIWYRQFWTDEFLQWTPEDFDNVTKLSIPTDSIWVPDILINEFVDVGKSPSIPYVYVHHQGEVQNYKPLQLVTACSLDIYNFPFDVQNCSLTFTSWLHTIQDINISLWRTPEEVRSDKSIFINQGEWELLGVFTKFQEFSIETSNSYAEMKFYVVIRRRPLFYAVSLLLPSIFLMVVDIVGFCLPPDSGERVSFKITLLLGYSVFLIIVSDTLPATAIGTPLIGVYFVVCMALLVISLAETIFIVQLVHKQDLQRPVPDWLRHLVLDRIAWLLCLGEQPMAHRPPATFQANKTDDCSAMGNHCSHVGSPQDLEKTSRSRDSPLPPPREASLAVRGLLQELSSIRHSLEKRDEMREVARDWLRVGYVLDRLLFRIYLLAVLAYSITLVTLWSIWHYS
Test: Antagonism against 5-HT3-receptor: serotonin-induced Bezold-Jarish (BJ) reflex in anesthetized rats
Format: in vivo
Details: iv, 10 min, i.v., urethane-anesthetized Wistar male rats, given 10 minutes before serotonin, read-out: BJ Reflex Inhibitory Activity ED50
Description: Nine-week-old Wistar male rats were anesthetized by intraperitoneal administration of 1 g/kg of urethane, and blood pressure and heart rate were measured under artificial respiration. Transient reduction in heart rate and blood pressure induced by intravenous administration of serotonin or 2-methylserotonin which is a selective agonist of 5-HT3 was taken as an index of the reaction via 5-HT3 receptor [Bezold-Jarish reflex; Paintal, A. S., Pysiolo. Rev., Vol. 53, p. 159 (1973)].
Inhibitory activity of the compound of the present invention on serotonin-induced Bezold-Jarish (BJ) reflex in rats is shown in Table 1 below.

| ED50 | SMILES |
| --- | --- |
| 0.8 µg/kg | O=C(C1CCc2nc[nH]c2C1)n1c(=O)[nH]c2ccccc21 (centres unmarked) [Example 9, 1-[(4,5,6,7-tetrahydrobenzimidazol-5-yl)carbonyl]-2,3-dihydrobenzimidazol-2-one] |
| 0.29 µg/kg | O=C(C1CCc2nc[nH]c2C1)N1CCc2ccccc21.O=C(O)/C=C/C(=O)O (centres unmarked) [Example 2, 5-[(2,3-Dihydroindol-1-yl)carbonyl]-4,5,6,7-tetrahydrobenzimidazole fumarate] |
